Source: US9101613B2, “Methods for treating neurological disease” (Neurim Pharmaceuticals (1991) Ltd., priority 2006, dated 2015)
Like-named read-outs stand apart in the source and are kept apart here.

Columns and labels:
[1] = target: T1, MT-1 receptor (Homo sapiens, UniProt P48039); assay: 125I-melatonin binding in membranes of CHP-K1 cells, MT-1; conditions: for inhibition at 10 µM: read-out: MT-1 receptor binding % inhibition by 10 μM
T1 construct: expressed in transfected cells; host or cells: CHP-K1 (Chinese hamster ovary) cells (so in the source)
T1 sequence (P48039 whole entry): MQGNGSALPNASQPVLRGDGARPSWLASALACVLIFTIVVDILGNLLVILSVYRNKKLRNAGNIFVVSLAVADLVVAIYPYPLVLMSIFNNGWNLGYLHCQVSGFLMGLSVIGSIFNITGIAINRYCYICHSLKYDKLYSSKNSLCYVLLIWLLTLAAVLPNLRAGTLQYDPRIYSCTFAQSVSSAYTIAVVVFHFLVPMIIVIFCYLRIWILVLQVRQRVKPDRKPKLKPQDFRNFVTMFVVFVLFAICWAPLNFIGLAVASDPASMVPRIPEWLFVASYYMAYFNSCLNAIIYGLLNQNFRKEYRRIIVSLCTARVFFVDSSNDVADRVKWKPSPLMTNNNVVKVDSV
Procedure: (§1) Aliquots of suspended membranes of human recombinant CHP-K1 (Chinese hamster ovary) cells stably expressing human melatonin-1 or melatonin-2 (MT-1 or MT-2) receptors or of hamster brain (MT-3) were incubated at 25° C. with 0.05 nM ^125I-melatonin in buffer (25 mM HEPES, pH 7.4, 5 mM MgCl2, 1 mM CaCl2, 0.5% BSA) or with 0.1 nM for MT-3 alone or in the presence of 1 nM, 10 nM, 0.1 μM, 1 μM and 10 μM of test substances N-[2-(5-methoxy-indol-3-yl)-ethyl]-commenamide, N-[2-(5-methoxy-indol-3-yl)-ethyl]-comanilamide, N-[2-(5-methoxy-indol-3-yl)-ethyl]-coumalylamide, N-[2-(5-methoxy-indol-3-yl)-ethyl]-2-methoxy-commenamide, N-[2-(5-methoxy-indol-3-yl)-ethyl]-chelidonamide, O-[2-(5-methoxy-indol-3-yl)-ethyl]-comenic ester, N-[2-(5-methoxy-indol-3-yl)-ethyl]-2-Pyrone-6-carboxamide and N-[2-(2-bromo-5-methoxy-indol-3-yl)-ethyl]-coumalylamide for 3 hours for MT-1, 4 hours for MT-2 and 30 min for MT-3. The binding reaction was terminated and the membranes were washed with 4 ml of ice-cold HEPES buffer by vacuum filtration. Membranes were then collected, and the filters containing the bound ^125I-melatonin were assayed for the amount of radioactivity in a […]. Non-specific binding was evaluated using a reaction with 1 μM 6-chloromelatonin (MT-1 and MT-2) or 30 μM melatonin (MT-3).

[2] = system: CD1 mice; assay: Potentiation of hexobarbital-Na sleep time in mice; format: in vivo; conditions: for effect on hexobarbital-Na narcosis time: 100 mg/kg i.p.; for Changes (%) vs. Vehicle (sleep time) / Mean Sleep Time-Treatment (min) ± SE: 100 mg/kg i.p. 15 min before 50 mg/kg hexobarbital-Na i.v.; for Mean Sleep Time-Treatment (min) ± SE: loss to recovery of righting reflex
Procedure: CD1 mice were divided randomly into groups of seven mice each. The mice in each group were administered intraperitoneally a dose of one of the following: 100 mg/kg of one of test substances O-[2-(5-methoxy-indol-3-yl)-ethyl]-comenic ester, N-[2-(5-methoxyindol-3-yl)-ethyl]-commenamide, N-[2-(5-methoxy-indol-3-yl)-ethyl]-coumalylamide, N-[2-(5-methoxy-indol-3-yl)-ethyl]-chelidonamide, N-[2-(5-methoxy-indol-3-yl)-ethyl]-comanilamide or N-[2-(5-methoxy-indol-3-yl)-ethyl]-2-methoxy-commenamide in saline (0.1 ml/10 g body weight), or saline alone. Fifteen minutes later the mice received a dose of 50 mg/kg of hexobarbital-Na intravenously. Sleep time was measured in each animal as the time from loss to recovery of the righting reflex.

[3] = system: 3T3-L1 adipocytes; assay: 2-[3H]-deoxy-d-glucose uptake in FFA-treated 3T3-L1 adipocyte model; format: cell-based; conditions: Insulin 20 nM + FFA 300 μM (3 h) + substance 10 nM
Procedure: Adipocytes were glucose-starved for 1 h in Hepes-salt buffer containing 2% FFA-free BSA. FFA (free fatty acids) were then added to the cells at the indicated concentrations (300 μM) for the indicated times (3 h). 10 min before the end of the FFA treatment, the cells were stimulated with insulin (20 nM)/melatonin (10 nM)/test compounds (10 nM) at 37° C. 2-[^3H]-deoxy-d-glucose at 1 μCi/mL and 0.1 mM unlabeled 2-deoxyglucose in KRP-HEPES buffer was added and cells were incubated for 10 min at room temperature. Non-specific glucose uptake was measured by parallel incubations in the presence of 10 μM cytochalasin B, which blocks transporter-mediated glucose uptake, and was subtracted from total uptake in each assay. Cells were then washed three times with ice-cold phosphate buffered saline (PBS) and solubilized in 1M NaOH for 20 minutes. The sample was then counted using a scintillation counter. 2-[^3H]-deoxy-d-glucose uptake was assayed in triplicates for each condition in at least 3 independent experiments. 2-[^3H]-deoxy-d-glucose uptake (counts per minute-cpm) are presented as mean+SE of triplicates in a representative experiment or results of three independent experiments. ANOVA test was used with significance of P<0.05 (Table 7).

[4] = target: T2, MT-2 receptor (Homo sapiens, UniProt P49286); assay: 125I-melatonin binding in membranes of CHP-K1 cells, MT-2; conditions: for inhibition at 10 µM: read-out: MT-2 receptor binding % inhibition by 10 μM
T2 construct: expressed in transfected cells; host or cells: CHP-K1 (Chinese hamster ovary) cells (so in the source)
T2 sequence (P49286 1-362): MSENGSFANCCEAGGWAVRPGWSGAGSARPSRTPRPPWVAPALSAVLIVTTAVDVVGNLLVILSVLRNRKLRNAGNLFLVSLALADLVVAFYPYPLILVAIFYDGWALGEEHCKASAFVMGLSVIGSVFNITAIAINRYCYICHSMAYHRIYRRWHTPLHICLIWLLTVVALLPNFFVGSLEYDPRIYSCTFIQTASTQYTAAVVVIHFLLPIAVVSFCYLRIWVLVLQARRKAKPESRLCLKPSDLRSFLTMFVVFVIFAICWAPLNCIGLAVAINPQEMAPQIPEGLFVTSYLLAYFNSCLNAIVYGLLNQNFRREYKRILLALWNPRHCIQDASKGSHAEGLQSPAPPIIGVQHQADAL
Procedure: as §1

[5] = 0.05 nM 125I-melatonin, 25° C., 3 hours, read-out: MT-1 receptor binding IC50
[6] = 0.05 nM 125I-melatonin, 25° C., 3 hours, read-out: MT-1 receptor binding KI
[7] = 0.05 nM 125I-melatonin, 25° C., 4 hours, read-out: MT-2 receptor binding IC50
[8] = 0.05 nM 125I-melatonin, 25° C., 4 hours, read-out: MT-2 receptor binding KI

Structure (SMILES)	IC50 [1, 5]	Ki [1, 6]	inhibition at 10 µM ([1]; 10 μM, 0.05 nM 125I-melatonin)	effect on hexobarbital-Na narcosis time [2]	Changes (%) vs. Vehicle (sleep time) [2]	Mean Sleep Time-Treatment (min) ± SE [2]	2-[3H]-deoxy-d-glucose uptake (cpm) [3]	IC50 [4, 7]	Ki [4, 8]	inhibition at 10 µM ([4]; 10 μM, 0.05 nM 125I-melatonin)	affinity to MT-1 [1]	affinity to MT-2 [4]	IC50 [1]	Ki [1]	inhibition at 10 µM [1]	IC50 [4]	Ki [4]	inhibition at 10 µM [4]
COc1ccc2[nH]cc(CCNC(=O)c3cc(=O)cc(C(=O)O)o3)c2c1 [N-[2-5-methoxy-indol-3-yl)-ethyl]-chelidonamide]	2470 nM	1280 nM	80%	moderately increased the hexobarbital-Na narcosis time	+54%	12.37 ± 1.85 min	1407 cpm	1760 nM	910 nM	89%								
COc1ccc2[nH]cc(CCNC(=O)c3cc(=O)c(OC)co3)c2c1 [N-[2-(5-methoxy-indol-3-yl)-ethyl]-2-methoxy-commenamide]	2130 nM	1110 nM	76%		−21%	7.70 ± 1.24 min	1522 cpm	826 nM	429 nM	93%								
COc1ccc2[nH]cc(CCNC(=O)c3cc(=O)cco3)c2c1 [N-[2-(5-methoxy-indol-3-yl)-ethyl]-comanilamide]	42 nM	22 nM	98%	moderately increased the hexobarbital-Na narcosis time	+49%	17.52 ± 3.07 min	1492 cpm	65 nM	34 nM	100%	high affinity	high affinity						
COc1ccc2[nH]cc(CCNC(=O)c3cc(=O)c(O)co3)c2c1 [N-[2-(5-methoxy-indol-3-yl)-ethyl]-commenamide]				significantly increased the hexobarbital-Na narcosis time	+88%	17.13 ± 8.06 min	1530 cpm				high affinity	high affinity	24 nM	13 nM	99%	13 nM	7 nM	101%
COc1ccc2[nH]cc(CCNC(=O)c3ccc(=O)oc3)c2c1 [N-[2-(5-methoxy-indol-3-yl)-ethyl]-coumalylamide]	750 nM	390 nM	89%	significantly increased the hexobarbital-Na narcosis time	+194%	23.58 ± 3.19 min	1494 cpm	370 nM	190 nM	95%								
